Assay [1] has as its target T1, αvβ3 from human A375 cells (Homo sapiens, UniProt P05106+P06756).
T1 construct: αvβ3 from human A375 cells was purified; endogenous in cells; host or cells: human A375 cells; receptor purified from the cells and used detergent-solubilised
The assay is described as follows: αvβ3 echistatin SPA binding assay. Conditions: purified αvβ3, labelled echistatin, WGA SPA beads. The protocol:
αvβ3 from human A375 cells was purified analogously to a procedure which was described by Wong et al. (Molecular Pharmacology, 50, 529-537 (1996)). 10 μl of αvβ3 (5 ng) in TBS pH 7.6, 2 mM CaCl2, 1 mM MgCl2, 1% n-octyl glucopyranoside (Sigma); 10 μl of test substance in TBS pH 7.6, 0.1% DMSO and 45 μl of TBS pH 7.6, 2 mM CaCl2, 1 mM MgCl2, 1 mM MnCl2 were in each case incubated at room temperature for 1 h. 25 μl of WGA SPA beads (Amersham, 4 mg/ml) and 10 μl of echistatin (0.1 μCi, Amersham, chloramine T-labelled) were then added in each case. After 16 hours at room temperature, the samples were measured in a scintillation measuring apparatus (Wallac 1450).

The next assay deals with αvβ3 receptor (Homo sapiens, UniProt P05106+P06756). The conditions noted are these: disclosed in WO98/00395; cited from earlier work.

This passage reports IC50 results from patent US6589972B2, “β-phenylalanine derivatives as integrin antagonists” (Bayer Aktiengesellschaft, priority 1999, dated 2003).

Where a name gives a salt, the structure may show the parent alone.

T1 sequence (P06756 31-889 limits assumed): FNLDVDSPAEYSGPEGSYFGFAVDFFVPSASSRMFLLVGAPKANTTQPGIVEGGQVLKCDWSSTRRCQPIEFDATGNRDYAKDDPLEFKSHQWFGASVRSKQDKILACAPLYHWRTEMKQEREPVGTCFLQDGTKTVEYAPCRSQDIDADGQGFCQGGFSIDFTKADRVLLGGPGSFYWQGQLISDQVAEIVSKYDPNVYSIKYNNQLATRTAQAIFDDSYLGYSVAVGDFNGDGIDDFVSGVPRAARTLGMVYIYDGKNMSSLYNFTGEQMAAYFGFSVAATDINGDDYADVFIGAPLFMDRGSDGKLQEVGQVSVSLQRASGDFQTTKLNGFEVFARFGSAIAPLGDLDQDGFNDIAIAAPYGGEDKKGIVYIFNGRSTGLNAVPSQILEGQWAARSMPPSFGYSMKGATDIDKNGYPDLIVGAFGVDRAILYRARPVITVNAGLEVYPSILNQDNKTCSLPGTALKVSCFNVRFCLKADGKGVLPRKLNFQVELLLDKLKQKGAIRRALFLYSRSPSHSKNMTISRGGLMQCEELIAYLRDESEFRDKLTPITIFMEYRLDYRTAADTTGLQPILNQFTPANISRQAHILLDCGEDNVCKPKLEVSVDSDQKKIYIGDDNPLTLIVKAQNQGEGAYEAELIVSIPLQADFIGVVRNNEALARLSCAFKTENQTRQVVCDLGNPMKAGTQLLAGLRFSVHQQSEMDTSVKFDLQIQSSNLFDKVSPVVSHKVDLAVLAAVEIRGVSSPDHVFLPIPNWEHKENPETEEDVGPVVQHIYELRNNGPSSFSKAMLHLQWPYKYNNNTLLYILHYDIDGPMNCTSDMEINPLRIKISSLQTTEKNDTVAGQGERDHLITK
T1 sequence (P06756 891-1048 partner limits assumed): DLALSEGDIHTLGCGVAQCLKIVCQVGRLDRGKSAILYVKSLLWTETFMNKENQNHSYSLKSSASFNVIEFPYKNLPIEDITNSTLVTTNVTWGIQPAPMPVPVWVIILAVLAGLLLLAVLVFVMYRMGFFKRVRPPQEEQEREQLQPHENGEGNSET
T1 sequence (P05106 27-788): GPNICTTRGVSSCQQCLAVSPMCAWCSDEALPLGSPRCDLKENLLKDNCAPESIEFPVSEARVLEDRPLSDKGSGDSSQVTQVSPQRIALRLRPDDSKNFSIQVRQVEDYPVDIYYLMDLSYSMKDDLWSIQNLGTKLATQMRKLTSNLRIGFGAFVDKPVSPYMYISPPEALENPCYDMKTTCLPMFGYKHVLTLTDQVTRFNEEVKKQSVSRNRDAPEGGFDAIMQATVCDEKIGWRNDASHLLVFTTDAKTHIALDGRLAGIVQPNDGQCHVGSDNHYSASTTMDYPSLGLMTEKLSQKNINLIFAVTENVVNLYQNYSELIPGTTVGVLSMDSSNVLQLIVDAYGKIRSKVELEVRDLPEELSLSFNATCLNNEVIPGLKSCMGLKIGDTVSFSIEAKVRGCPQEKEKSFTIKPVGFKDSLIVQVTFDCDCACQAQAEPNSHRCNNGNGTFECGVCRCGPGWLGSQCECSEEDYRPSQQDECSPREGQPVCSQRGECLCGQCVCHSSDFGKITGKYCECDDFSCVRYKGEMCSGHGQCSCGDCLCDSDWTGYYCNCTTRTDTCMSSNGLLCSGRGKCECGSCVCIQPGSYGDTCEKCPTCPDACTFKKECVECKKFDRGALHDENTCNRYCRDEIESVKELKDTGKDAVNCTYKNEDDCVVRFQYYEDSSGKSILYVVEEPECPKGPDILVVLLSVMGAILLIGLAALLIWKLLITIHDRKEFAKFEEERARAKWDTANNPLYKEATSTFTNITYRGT
Sequence of αvβ3 receptor (P06756 31-889 limits assumed): as the sequence (P06756 31-889 limits assumed) above
Sequence of αvβ3 receptor (P06756 891-1048 partner limits assumed): as the sequence (P06756 891-1048 partner limits assumed) above
Sequence of αvβ3 receptor (P05106 27-788): as the sequence (P05106 27-788) above

What is called IC50 is the concentration at which inhibition is half-maximal. In assay [1], `N=C(N)Nc1cccc(S(=O)(=O)Nc2cccc(C(CC(=O)O)NC(=O)c3ccccc3)c2)c1` (stereo not shown) [Example 4, 3-Benzoylamino-3-[3-(3-guanidino-benzenesulphonylamino)-phenyl]-propionic acid] yielded an IC50 of 12.8 nM.

Regarding `O=C(O)CC(NS(=O)(=O)c1ccccc1)c1cccc(NS(=O)(=O)c2cccc(NC3=NCCN3)c2)c1` (stereo not shown) [Example 9], the IC50 in assay [1] was 0.295 nM.

In turn, `N=C(N)Nc1cccc(C(=O)Nc2cccc(C(CC(=O)O)NS(=O)(=O)c3ccccc3)c2)c1` (stereo not shown) [Example 2, 3-Benzenesulphonylamino-3-[3-(3-guanidino-benzoylamino)-phenyl]-propionic acid, trifluoroacetic acid salt] registered an IC50 in assay [1] of 390 nM.

In turn, `Cc1cc(C)c(CC(=O)NC(CC(=O)O)c2cccc(NS(=O)(=O)c3cccc(NC(=N)N)c3)c2)c(C)c1` (stereo not shown) [Example 3, 3-(3-[3-Guanidinobenzenesulphonylamino]-phenyl)-3-(2,4,6-trimethylphenylacetylamino)-propionic acid, trfiluoroacetic acid salt] displayed an IC50 in assay [1] of 153 nM.

As for `N=C(N)Nc1cccc(S(=O)(=O)Nc2cccc(C(CC(=O)O)NC(=O)CCc3ccccc3)c2)c1` (stereo not shown) [Example 6, 3-(3-[3-Guanidino-benzenesulphonylamino]-phenyl)-3-phenylpropionylamino-propionic acid], in assay [1], the IC50 came to 36.2 nM.

For the molecule `N=C(N)Nc1cccc(S(=O)(=O)Nc2cccc(C(CC(=O)O)NS(=O)(=O)c3ccccc3)c2)c1` (stereo not shown) [Example 1, 3-Benzenesulphonylamino-3-[3-(3-guanidino-benzenesulphonylamino)-phenyl]-3-propionic acid, trifluoroacetic acid salt], the IC50 in assay [1] is 19 nM.

In the case of `N=C(N)Nc1cccc(COc2cccc(C(CC(=O)O)NS(=O)(=O)c3ccccc3)c2)c1` (stereo not shown) [Example 8, 3-Benzenesulphonylamino-3-[3-(3-guanidino-benzyloxy)-phenyl]-propionic acid], the IC50 in assay [1] is 33 nM.

Regarding `CCC(C(=O)NC(CC(=O)O)c1cccc(NS(=O)(=O)c2cccc(NC(=N)N)c2)c1)c1ccccc1` (mixture of isomers) [Example 7, 3-(3-[3-Guanidino-benzenesulphonylamino]-phenyl)-3-(2-phenylbutyrylamino)-propionic acid], the IC50 in assay [1] was found to be 115 nM.

Consider `CC1(C)C2CCC1(CS(=O)(=O)NC(Cc1ccc(OCCCC(=O)NC(=N)N)cc1)C(=O)O)C(=O)C2` (stereo not shown) [(I)], for which, on αvβ3 receptor, the IC50 is 0.13 nM.

In assay [1], `N=C(N)Nc1cccc(S(=O)(=O)Nc2cccc(C(CC(=O)O)NC(=O)Cc3ccc(Cl)cc3Cl)c2)c1` (stereo not shown) [Example 5] registered an IC50 of 72.4 nM.
